Test results taken from ChEMBL document CHEMBL5150068, “Structure-Based Design of Tropane Derivatives as a Novel Series of CCR5 Antagonists with Broad-Spectrum Anti-HIV-1 Activities and Improved Oral Bioavailability” (J Med Chem, 2022).

Assays:
[1] = molecular target: C-C chemokine receptor type 5 (Homo sapiens, UniProt P51681); assay: Antagonist activity at CCR5 (unknown origin) expressed in HEK293 cells co-expressing Galpha16 assessed as intracellular calcium change incubated for 15 mins by Fluo-4 AM calcium flux assay; type: functional, cell-based
Chain of C-C chemokine receptor type 5 (P51681 whole entry): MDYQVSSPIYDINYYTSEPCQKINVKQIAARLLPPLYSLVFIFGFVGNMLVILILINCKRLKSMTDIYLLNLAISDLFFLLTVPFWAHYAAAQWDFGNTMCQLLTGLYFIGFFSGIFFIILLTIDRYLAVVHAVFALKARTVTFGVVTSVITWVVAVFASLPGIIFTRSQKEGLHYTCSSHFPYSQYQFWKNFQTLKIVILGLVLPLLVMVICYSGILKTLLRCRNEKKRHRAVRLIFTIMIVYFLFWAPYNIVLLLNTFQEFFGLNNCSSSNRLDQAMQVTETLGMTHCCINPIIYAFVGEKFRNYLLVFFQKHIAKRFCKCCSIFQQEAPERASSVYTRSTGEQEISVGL

[2] = system: Human immunodeficiency virus 1; assay: Antiviral activity against HIV-1 Ba-L infected in human TZM-bl cells measured after 48 hrs incubation by luciferase based analysis; type: functional, organism-based; details: Human immunodeficiency virus 1, Ba-L
[3] = Cytotoxicity against human TZM-bl cells incubated for 48 hrs by MTT assay; type: toxicity, cell-based
[4] = Cytotoxicity against human PM1 cells incubated for 48 hrs by MTT assay; type: toxicity, cell-based
[5] = Cytotoxicity against human HOS-CD4-CCR5 cells incubated for 48 hrs by MTT assay; type: toxicity, cell-based
[6] = Cytotoxicity against human PBMC cells incubated for 48 hrs by MTT assay; type: toxicity, cell-based
[7] = system: Human immunodeficiency virus 1; assay: Antiviral activity against HIV-1 SF162 infected in human TZM-bl cells measured after 48 hrs incubation by luciferase based analysis; type: functional, organism-based; details: Human immunodeficiency virus 1, SF162, TZM-bl
[8] = system: Human immunodeficiency virus 1; assay: Antiviral activity against HIV-1 YU-2 infected in human TZM-bl cells measured after 48 hrs incubation by luciferase based analysis; type: functional, organism-based; details: Human immunodeficiency virus 1, YU-2, TZM-bl, 48 h
[9] = system: Human immunodeficiency virus 1; assay: Antiviral activity against HIV-1 Ba-L infected in human HOS-CD4-CCR5 cells measured after 48 hrs incubation by ELISA based p24 antigen assay; type: functional, organism-based; details: Human immunodeficiency virus 1, Ba-L
[10] = system: Human immunodeficiency virus 1; assay: Antiviral activity against HIV-1 Ba-L infected in human PM1 cells measured after 48 hrs incubation by ELISA based p24 antigen assay; type: functional, organism-based; details: Human immunodeficiency virus 1, Ba-L, PM1, 48 h
[11] = system: Human immunodeficiency virus 1; assay: Antiviral activity against HIV-1 IIIB infected in human TZM-bl cells measured after 48 hrs incubation by luciferase based analysis; type: functional, organism-based; details: Human immunodeficiency virus 1, IIIB
[12] = system: Human immunodeficiency virus 1; assay: Antiviral activity against HIV-1 KM018 clinical isolate infected in human PBMC measured after 48 hrs incubation by luciferase based analysis; type: functional, organism-based; details: Human immunodeficiency virus 1, KM018, PBMC
[13] = system: Human immunodeficiency virus 1; assay: Antiviral activity against HIV-1 KIZ001 clinical isolate infected in human PBMC measured after 48 hrs incubation by luciferase based analysis; type: functional, organism-based; details: Human immunodeficiency virus 1, KIZ001, PBMC
[14] = system: Human immunodeficiency virus 1; assay: Antiviral activity against HIV-1 KIZ006 clinical isolate infected in human PBMC measured after 48 hrs incubation by luciferase based analysis; type: functional, organism-based; details: Human immunodeficiency virus 1, KIZ006, PBMC
[15] = system: Human immunodeficiency virus 1; assay: Antiviral activity against HIV-1 YU-2 (G140S/Q148H) infected in human TZM-bl cells measured after 48 hrs incubation by luciferase based analysis; type: functional, organism-based; details: Human immunodeficiency virus 1, YU-2 (G140S/Q148H)
[16] = system: Human immunodeficiency virus 1; assay: Synergistic antiviral activity against HIV-1 Ba-L infected in human TZM-bl cells assessed as combination index in presence of zidovudine; type: functional
[17] = system: Human immunodeficiency virus 1; assay: Synergistic antiviral activity against HIV-1 Ba-L infected in human TZM-bl cells assessed as combination index in presence of lamivudine; type: functional
[18] = system: Human immunodeficiency virus 1; assay: Synergistic antiviral activity against HIV-1 Ba-L infected in human TZM-bl cells assessed as combination index in presence of tenofovir; type: functional
[19] = system: Human immunodeficiency virus 1; assay: Synergistic antiviral activity against HIV-1 Ba-L infected in human TZM-bl cells assessed as combination index in presence of etravirine; type: functional
[20] = system: Human immunodeficiency virus 1; assay: Synergistic antiviral activity against HIV-1 Ba-L infected in human TZM-bl cells assessed as combination index in presence of emtricitabine; type: functional
[21] = system: Human immunodeficiency virus 1; assay: Synergistic antiviral activity against HIV-1 Ba-L infected in human TZM-bl cells assessed as combination index in presence of nevirapine; type: functional
[22] = system: Human immunodeficiency virus 1; assay: Synergistic antiviral activity against HIV-1 Ba-L infected in human TZM-bl cells assessed as combination index in presence of efavirenz; type: functional
[23] = system: Human immunodeficiency virus 1; assay: Synergistic antiviral activity against HIV-1 Ba-L infected in human TZM-bl cells assessed as combination index in presence of raltegravir; type: functional
[24] = system: Human immunodeficiency virus 1; assay: Synergistic antiviral activity against HIV-1 Ba-L infected in human TZM-bl cells assessed as combination index in presence of dolutegravir; type: functional
[25] = system: Human immunodeficiency virus 1; assay: Synergistic antiviral activity against HIV-1 Ba-L infected in human TZM-bl cells assessed as combination index in presence of indinavir; type: functional
[26] = system: Human immunodeficiency virus 1; assay: Synergistic antiviral activity against HIV-1 Ba-L infected in human TZM-bl cells assessed as combination index in presence of T-20; type: functional
[27] = Cmax in Sprague-Dawley rat at 10 mg/kg, po measured upto 24 hrs; type: ADME, organism-based; design: time < 24 hrs, dose 10 mg/kg, route po; details: in vivo
[28] = Tmax in Sprague-Dawley rat at 10 mg/kg, po measured upto 24 hrs; type: ADME, organism-based; details: in vivo
[29] = Half life in Sprague-Dawley rat at 10 mg/kg, po measured upto 24 hrs; type: ADME, organism-based; details: in vivo
[30] = AUC (0 to last) in Sprague-Dawley rat at 10 mg/kg, po measured upto 24 hrs; type: ADME, organism-based; design: dose 10 mg/kg, time < 24 hrs, route po; details: in vivo
[31] = AUC (0 to infinitive) in Sprague-Dawley rat at 10 mg/kg, po measured upto 24 hrs; type: ADME, organism-based; design: dose 10 mg/kg, time < 24 hrs, route po; details: in vivo, 24 h
[32] = MRT in Sprague-Dawley rat at 10 mg/kg, po measured upto 24 hrs; type: ADME, organism-based; details: in vivo
[33] = Oral bioavailability in Sprague-Dawley rat at 10 mg/kg measured upto 24 hrs; type: ADME, organism-based; details: in vivo, po, 10 mg/kg, 24 h
[34] = Half life in Sprague-Dawley rat at 2 mg/kg, iv measured upto 24 hrs; type: ADME, organism-based; details: Sprague-Dawley, in vivo
[35] = AUC (0 to last) in Sprague-Dawley rat at 2 mg/kg, iv measured upto 24 hrs; type: ADME, organism-based; design: dose 2 mg/kg, time < 24 hrs, route iv; details: in vivo, 24 h
[36] = AUC (0 to infinitive) in Sprague-Dawley rat at 2 mg/kg, iv measured upto 24 hrs; type: ADME, organism-based; design: dose 2 mg/kg, time < 24 hrs, route iv; details: in vivo, 24 h
[37] = MRT in Sprague-Dawley rat at 2 mg/kg, iv measured upto 24 hrs; type: ADME, organism-based; details: Sprague-Dawley, in vivo, read-out: MRT
[38] = molecular target: T1, Cytochrome P450 1A2 (Homo sapiens, UniProt P05177); assay: Inhibition of CYP1A2 (unknown origin); type: ADME
T1 sequence (P05177 whole entry): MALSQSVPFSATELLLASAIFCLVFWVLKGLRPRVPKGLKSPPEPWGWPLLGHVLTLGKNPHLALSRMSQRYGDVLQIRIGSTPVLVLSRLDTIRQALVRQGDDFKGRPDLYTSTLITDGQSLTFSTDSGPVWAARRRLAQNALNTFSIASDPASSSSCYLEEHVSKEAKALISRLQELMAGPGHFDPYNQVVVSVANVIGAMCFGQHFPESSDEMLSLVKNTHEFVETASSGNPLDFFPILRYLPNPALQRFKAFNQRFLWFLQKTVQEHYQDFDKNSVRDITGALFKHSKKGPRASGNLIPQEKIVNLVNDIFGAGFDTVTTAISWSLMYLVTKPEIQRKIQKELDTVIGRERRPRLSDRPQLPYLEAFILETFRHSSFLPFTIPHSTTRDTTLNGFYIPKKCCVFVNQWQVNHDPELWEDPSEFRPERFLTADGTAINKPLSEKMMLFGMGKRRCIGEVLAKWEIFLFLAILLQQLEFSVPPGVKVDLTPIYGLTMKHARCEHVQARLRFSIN

[39] = molecular target: Cytochrome P450 2C9 (Homo sapiens, UniProt P11712); assay: Inhibition of CYP2C9 (unknown origin); type: ADME
Chain of Cytochrome P450 2C9 (P11712 whole entry): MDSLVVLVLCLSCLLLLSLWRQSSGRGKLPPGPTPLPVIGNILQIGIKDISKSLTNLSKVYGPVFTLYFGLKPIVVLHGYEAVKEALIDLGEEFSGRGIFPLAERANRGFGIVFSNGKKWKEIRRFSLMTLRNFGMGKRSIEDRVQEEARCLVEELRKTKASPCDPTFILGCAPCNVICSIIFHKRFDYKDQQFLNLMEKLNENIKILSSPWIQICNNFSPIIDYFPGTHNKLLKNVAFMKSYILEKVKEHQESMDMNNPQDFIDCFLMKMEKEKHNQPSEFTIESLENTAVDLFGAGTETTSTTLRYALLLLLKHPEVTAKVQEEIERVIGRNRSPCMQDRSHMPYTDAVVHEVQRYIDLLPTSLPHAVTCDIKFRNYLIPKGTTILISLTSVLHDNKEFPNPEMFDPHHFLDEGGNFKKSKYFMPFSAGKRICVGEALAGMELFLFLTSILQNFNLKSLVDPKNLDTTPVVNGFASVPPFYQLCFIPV

[40] = molecular target: Cytochrome P450 2C19 (Homo sapiens, UniProt P33261); assay: Inhibition of CYP2C19 (unknown origin); type: ADME
Chain of Cytochrome P450 2C19 (P33261 whole entry): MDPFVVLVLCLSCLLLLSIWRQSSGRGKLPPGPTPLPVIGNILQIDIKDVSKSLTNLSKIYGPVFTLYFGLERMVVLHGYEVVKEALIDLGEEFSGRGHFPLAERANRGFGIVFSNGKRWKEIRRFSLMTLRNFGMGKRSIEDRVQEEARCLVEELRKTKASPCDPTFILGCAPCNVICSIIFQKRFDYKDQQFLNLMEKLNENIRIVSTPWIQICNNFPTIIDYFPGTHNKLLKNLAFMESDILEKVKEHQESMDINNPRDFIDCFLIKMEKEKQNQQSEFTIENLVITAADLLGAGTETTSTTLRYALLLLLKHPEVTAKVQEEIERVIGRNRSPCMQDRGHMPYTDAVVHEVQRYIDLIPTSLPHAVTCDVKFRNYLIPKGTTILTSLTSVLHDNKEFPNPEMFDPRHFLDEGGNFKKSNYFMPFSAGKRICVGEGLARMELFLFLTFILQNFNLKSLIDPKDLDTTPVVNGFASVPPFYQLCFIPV

[41] = molecular target: Cytochrome P450 2D6 (Homo sapiens, UniProt P10635); assay: Inhibition of CYP2D6 (unknown origin); type: ADME
Chain of Cytochrome P450 2D6 (P10635 whole entry): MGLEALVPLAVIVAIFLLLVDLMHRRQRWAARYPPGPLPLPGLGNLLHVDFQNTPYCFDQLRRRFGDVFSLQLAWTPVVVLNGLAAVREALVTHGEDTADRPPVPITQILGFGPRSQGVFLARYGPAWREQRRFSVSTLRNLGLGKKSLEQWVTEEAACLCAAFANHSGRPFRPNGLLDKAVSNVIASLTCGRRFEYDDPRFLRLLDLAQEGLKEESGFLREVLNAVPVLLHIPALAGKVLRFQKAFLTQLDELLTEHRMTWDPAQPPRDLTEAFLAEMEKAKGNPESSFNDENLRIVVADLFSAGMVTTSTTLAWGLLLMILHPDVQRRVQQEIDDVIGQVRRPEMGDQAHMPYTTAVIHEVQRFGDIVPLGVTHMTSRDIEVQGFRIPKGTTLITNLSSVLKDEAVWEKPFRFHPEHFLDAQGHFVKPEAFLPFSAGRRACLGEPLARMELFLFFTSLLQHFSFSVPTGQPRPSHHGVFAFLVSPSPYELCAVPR

[42] = molecular target: T2, Cytochrome P450 3A4 (Homo sapiens, UniProt P08684); assay: Inhibition of CYP3A4 (unknown origin) using midazolam as substrate; type: ADME
T2 sequence (P08684 whole entry): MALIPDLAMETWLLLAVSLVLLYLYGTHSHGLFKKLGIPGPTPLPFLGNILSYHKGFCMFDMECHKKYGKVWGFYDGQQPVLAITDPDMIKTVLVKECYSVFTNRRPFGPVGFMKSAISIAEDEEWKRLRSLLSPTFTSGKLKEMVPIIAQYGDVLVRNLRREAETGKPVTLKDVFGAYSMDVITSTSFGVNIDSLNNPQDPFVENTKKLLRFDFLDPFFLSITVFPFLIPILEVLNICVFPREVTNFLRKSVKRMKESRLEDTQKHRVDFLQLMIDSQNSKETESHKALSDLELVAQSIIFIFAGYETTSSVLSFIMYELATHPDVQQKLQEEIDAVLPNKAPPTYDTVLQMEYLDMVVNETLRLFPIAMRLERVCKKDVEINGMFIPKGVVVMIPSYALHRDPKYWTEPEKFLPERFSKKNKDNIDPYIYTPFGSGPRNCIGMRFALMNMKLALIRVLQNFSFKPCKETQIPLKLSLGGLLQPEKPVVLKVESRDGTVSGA

[43] = molecular target: T2, Cytochrome P450 3A4; assay: Inhibition of CYP3A4 (unknown origin) using testosterone as substrate; type: ADME
[44] = in vitro; details: human, TZM-bl cells
Description: Therapeutic index, ratio of CC50 for human TZM-bl cells to EC50 for antiviral activity against HIV-1 Ba-L

[45] = in vitro; details: human, HOS-CD4-CCR5 cells
Description: Therapeutic index, ratio of CC50 for human HOS-CD4-CCR5 cells to EC50 for antiviral activity against HIV-1 Ba-L

[46] = in vitro; details: human, PM1 cells
Description: Therapeutic index, ratio of CC50 for human PM1 cells to EC50 for antiviral activity against HIV-1 Ba-L

[47] = in vitro; details: human, PM1 cells; remark: listed apart in the source
Description: Therapeutic index, ratio of CC50 for human PM1 cells to EC50 for antiviral activity against HIV-1 YU-2

[48] = in vitro; details: human, PM1 cells; remark: listed apart in the source
Description: Therapeutic index, ratio of CC50 for human PM1 cells to EC50 for antiviral activity against HIV-1 SF162

[49] = in vitro; details: human, PBMC
Description: Therapeutic index, ratio of CC50 for human PBMC to EC50 for antiviral activity against HIV-1 KM018 clinical isolate

[50] = in vitro; details: human, PBMC; remark: listed apart in the source
Description: Therapeutic index, ratio of CC50 for human PBMC to EC50 for antiviral activity against HIV-1 KIZ001 clinical isolate

[51] = in vitro; details: human, PBMC; remark: listed apart in the source
Description: Therapeutic index, ratio of CC50 for human PBMC to EC50 for antiviral activity against HIV-1 KIZ006 clinical isolate

## CC(=O)N1CCc2c(nc(C)n2[C@@H]2C[C@H]3CC[C@@H](C2)N3CC[C@H](NC(=O)C2CCC(F)(F)CC2)c2ccsc2)C1
[1]
  IC50: 15.9 nM
[2]
  EC50: 10 nM
[3]
  CC50 at 48 h: > 200000 nM
[4]
  CC50 at 48 h: > 200000 nM
[5]
  CC50 at 48 h: > 200000 nM
[6]
  CC50 at 48 h: 103000 nM
[7]
  EC50: 7.64 nM
[8]
  EC50: 2.89 nM
[9]
  EC50: 0.66 nM
[10]
  EC50: 0.29 nM
[11]
  EC50: > 1000 nM
[12]
  EC50: 23.3 nM
[13]
  EC50: 5.26 nM
[14]
  EC50: 19 nM
[15]
  EC50: 2.71 nM
[16]
  CI: 0.6
[17]
  CI: 0.69
[18]
  CI: 0.47
[19]
  CI: 0.75
[20]
  CI: 0.44
[21]
  CI: 0.41
[22]
  CI: 0.85
[23]
  CI: 0.46
[24]
  CI: 0.5
[25]
  CI: 0.95
[26]
  CI: 0.33
[27]
  Cmax: 66.4 ng/mL
[28]
  Tmax: 2.67 h
[29]
  half-life: 6.44 h
[30]
  AUC(0-t) at 24 h: 270 ng·h/mL
[31]
  AUC: 270 ng·h/mL
[32]
  MRT: 9.16 h
[33]
  F: 11.9%
[34]
  half-life: 3.34 h
[35]
  AUC: 270 ng·h/mL
[36]
  AUC: 3.44 ng·h/mL
[37]
  MRT: 9.16 h
[38]
  IC50: > 25000 nM
[39]
  IC50: > 25000 nM
[40]
  IC50: > 25000 nM
[41]
  IC50: > 25000 nM
[42]
  IC50: > 25000 nM
[43]
  IC50: > 25000 nM
[44]
  selectivity ratio: > 20000
[45]
  selectivity ratio: > 30300
[46]
  selectivity ratio: > 69000
[47]
  selectivity ratio: > 69200
[48]
  selectivity ratio: > 26200
[49]
  selectivity ratio: 4400
[50]
  selectivity ratio: 19500
[51]
  selectivity ratio: 5390
